This note sets out measurements from EP0522502A1, “Inhibitors of sucrase activity from tea” (MITSUI NORIN CO., LTD., priority 1991, dated 1993).

One series has as its target T1, Sucrase (Rattus norvegicus, UniProt P23739).
T1 construct: Sucrase was prepared from the mucous membrane of the small intestines of Wistar rats; from tissue; host or cells: mucous membrane of the small intestine of Wistar rats
Kind of series: Sucrase activity inhibition (Dahlquist enzyme preparation, Bernfeld sugar determination). It counts as biochemical, Wistar rats. Conditions: for Inhibition (%): final concentration of 5x10⁻⁴ M, substrate 60mM sucrose solution, 37 °C for 15 minutes, control (distilled water) = 100% activity; for sucrase activity inhibiting capacity: verbal summary of Table 1, 5x10⁻⁴ M. How it is done:
The value thus measured was converted into the amount of decomposed sucrose, and the reaction speed was calculated using a standard method. The reaction speed of the control case (where distilled water was added instead of the sample solution) was also obtained in the same manner. Sucrase activity in the control case was calculated to be 100%. The percentage inhibition of the samples, each at a final concentration of 5x10⁻⁴ M, were obtained.

The test system of the next series is male ICR mice. Kind of series: Acute toxicity test (LD50 by Van der Waerden method). It counts as in vivo. Conditions: intraabdominal administration. How it is done: An acute toxicity test of the sucrase activity inhibitor of the present invention was carried out using male ICR mice. LD₅₀ was calculated by the Van der Waerden method.

T1 sequence (P23739 whole entry): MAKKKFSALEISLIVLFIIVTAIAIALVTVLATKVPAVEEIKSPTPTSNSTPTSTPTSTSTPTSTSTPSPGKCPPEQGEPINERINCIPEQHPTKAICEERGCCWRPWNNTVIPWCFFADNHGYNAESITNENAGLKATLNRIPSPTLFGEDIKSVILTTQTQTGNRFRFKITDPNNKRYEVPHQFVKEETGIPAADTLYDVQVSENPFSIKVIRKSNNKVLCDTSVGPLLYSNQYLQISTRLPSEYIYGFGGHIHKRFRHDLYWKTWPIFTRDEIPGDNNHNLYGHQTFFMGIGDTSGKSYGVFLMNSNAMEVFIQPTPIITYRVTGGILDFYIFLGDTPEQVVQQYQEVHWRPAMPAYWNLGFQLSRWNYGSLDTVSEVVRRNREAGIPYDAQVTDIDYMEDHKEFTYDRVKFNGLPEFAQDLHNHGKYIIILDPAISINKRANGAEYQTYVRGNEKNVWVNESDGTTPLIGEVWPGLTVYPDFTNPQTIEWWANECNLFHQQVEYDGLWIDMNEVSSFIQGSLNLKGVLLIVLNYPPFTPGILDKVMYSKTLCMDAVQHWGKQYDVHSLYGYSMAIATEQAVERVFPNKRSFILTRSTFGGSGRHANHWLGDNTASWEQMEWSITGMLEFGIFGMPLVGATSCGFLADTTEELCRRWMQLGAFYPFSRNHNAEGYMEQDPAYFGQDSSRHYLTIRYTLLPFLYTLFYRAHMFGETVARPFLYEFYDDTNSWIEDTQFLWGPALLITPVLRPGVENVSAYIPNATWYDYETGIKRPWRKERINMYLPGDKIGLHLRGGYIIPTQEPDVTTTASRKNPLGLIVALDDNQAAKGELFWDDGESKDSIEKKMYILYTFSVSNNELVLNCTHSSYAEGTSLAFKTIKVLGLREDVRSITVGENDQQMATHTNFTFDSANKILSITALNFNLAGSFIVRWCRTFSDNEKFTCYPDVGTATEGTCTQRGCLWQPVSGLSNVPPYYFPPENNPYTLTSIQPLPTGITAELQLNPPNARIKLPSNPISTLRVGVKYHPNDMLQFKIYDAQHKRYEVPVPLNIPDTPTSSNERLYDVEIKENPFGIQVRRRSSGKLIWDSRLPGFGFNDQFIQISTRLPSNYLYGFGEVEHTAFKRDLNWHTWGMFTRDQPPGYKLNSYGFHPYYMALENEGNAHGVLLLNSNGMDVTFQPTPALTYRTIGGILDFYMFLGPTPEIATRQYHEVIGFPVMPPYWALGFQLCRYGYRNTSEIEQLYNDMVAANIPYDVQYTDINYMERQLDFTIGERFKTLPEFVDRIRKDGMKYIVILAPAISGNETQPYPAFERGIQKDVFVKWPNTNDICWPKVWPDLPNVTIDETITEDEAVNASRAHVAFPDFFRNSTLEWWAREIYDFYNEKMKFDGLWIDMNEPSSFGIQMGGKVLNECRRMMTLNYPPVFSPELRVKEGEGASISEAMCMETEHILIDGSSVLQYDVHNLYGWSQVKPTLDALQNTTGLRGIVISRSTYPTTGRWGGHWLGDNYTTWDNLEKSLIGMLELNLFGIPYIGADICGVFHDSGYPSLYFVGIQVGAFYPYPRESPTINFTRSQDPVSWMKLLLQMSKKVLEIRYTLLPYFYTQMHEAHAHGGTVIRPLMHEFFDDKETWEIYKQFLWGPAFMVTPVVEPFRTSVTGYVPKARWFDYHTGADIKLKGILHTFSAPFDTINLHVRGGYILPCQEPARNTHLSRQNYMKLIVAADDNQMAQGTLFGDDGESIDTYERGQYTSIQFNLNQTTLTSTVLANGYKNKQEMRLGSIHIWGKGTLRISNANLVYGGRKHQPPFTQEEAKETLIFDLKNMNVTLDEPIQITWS

`O=C(O)c1cc(O)c(O)c(O)c1` [Gallic Acid, reference compound]: the “Inhibition (%)” value on Sucrase came to 6.7%.
The same measure, in the same setting: as for `O=C(O[C@@H]1Cc2c(O)cc(O)cc2O[C@@H]1c1cc(O)c(=O)c2c(O)c(O)cc([C@H]3Oc4cc(O)cc(O)c4C[C@H]3O)c2c1)c1cc(O)c(O)c(O)c1` [Theaflavin Monogallate A], the figure is 45.9%.
Same read-out and setting: next, `Oc1cc(O)c2c(c1)O[C@H](c1ccc(O)c(O)c1)[C@@H](O)C2` [(+)Catechin, reference compound]: 13.7%; `O=C(O[C@@H]1Cc2c(O)cc(O)cc2O[C@@H]1c1cc(O)c(=O)c2c(O)c(O)cc([C@H]3Oc4cc(O)cc(O)c4C[C@H]3OC(=O)c3cc(O)c(O)c(O)c3)c2c1)c1cc(O)c(O)c(O)c1` [Theaflavin Digallate]: 95.9%.
Regarding `O=c1c(O)cc([C@H]2Oc3cc(O)cc(O)c3C[C@H]2O)cc2c([C@H]3Oc4cc(O)cc(O)c4C[C@H]3O)cc(O)c(O)c12` [Free Theaflavin], on Sucrase, the “Inhibition (%)” value is on record as 6.8% and the “sucrase activity inhibiting capacity” value is on record as “only slight”.
The matching figures for `Oc1cc(O)c2c(c1)O[C@H](c1ccc(O)c(O)c1)[C@H](O)C2` [Epicatechin, (-) Epicatechin]: 14.7% and “only slight”.
As to `O=C(O[C@@H]1Cc2c(O)cc(O)cc2O[C@@H]1c1ccc(O)c(O)c1)c1cc(O)c(O)c(O)c1` [Epicatechin Gallate, (-) Epicatechin Gallate], the “Inhibition (%)” value at Sucrase is recorded as 62.5%.
Regarding `O=C(O[C@@H]1Cc2c(O)cc(O)cc2O[C@@H]1c1cc(O)c(O)c(O)c1)c1cc(O)c(O)c(O)c1` [Epigallocatechin Gallate, (-) Epigallocatechin Gallate], the “Inhibition (%)” value at Sucrase is listed as 78.8%. In addition, in the series on male ICR mice, the “LD₅₀(reliable limit)” value is reported as 150 mg/kg.
Regarding `Oc1cc(O)c2c(c1)O[C@H](c1cc(O)c(O)c(O)c1)[C@H](O)C2` [Epigallocatechin, (-) Epigallocatechin], at Sucrase, the “Inhibition (%)” value worked out at 17.3% and the “sucrase activity inhibiting capacity” value is “only slight”.
Consider `O=C(O[C@@H]1Cc2c(O)cc(O)cc2O[C@@H]1c1cc(O)c(O)c2c(=O)c(O)cc([C@H]3Oc4cc(O)cc(O)c4C[C@H]3O)cc12)c1cc(O)c(O)c(O)c1` [Theaflavin Monogallate B], for which, on Sucrase, the “Inhibition (%)” value is 59.5%.
